Experiment [1] has as its system human lung cancer cells H460. The experiment is described as follows: MTT growth inhibition, H460 cells. It is filed as cell-based. Particulars: NCI-H460, 72 h after treatment, read-out: Drug concentration (IC50) at which 50% cancer cells survived. The text has this: (§1) Cell lines and cell culture: human lung cancer cells A549 and H460, human breast cancer cells MCF-7 and MDA-MB-231, human gastric cancer cells BGC-823, human prostate cancer cells PC-3, human chronic leukemia cells K562, human lymphoma cells U937, human liver cancer cells SMMC7721 and HepG2, human colon cancer cells HT29, human pancreatic cancer cells PANC-1 and BxPC3, human cervical cancer Hela cell lines, human brain tumor cells Daoy, human neuroma cells D54 and human oral epidermoid cancer cells KBV200 line with strong drug resistance, mouse melanoma cells B16, and highly metastatic Lewis lung cancer cell lines were purchased from American Type Culture Collection of the U.S. These cells were cultured with DMEM and RPMI-1640 culture solutions separately.
(§2) The procedure was as follows:
(§3) (1) 0.25% trypsin was used to digest cancer cells in a logarithmic growth phase to prepare a single-cell suspension, the concentration of cells was adjusted to 5×10^4/mL, and the adjusted suspension was inoculated into a 96-well culture plate with 100 μl per well;
(§4) (2) The culture plate was transferred into a 37° C. incubator with a saturated humidity and 5% of CO2 and cultured for 24 h; the compounds and the intermediates thereof obtained in embodiments 1-7 and the compound as represented by formula (IIIa) or the positive control anti-cancer drug with the concentration of 1-1000 μM/L were added to enable the final concentration to be 0.1-1500 μM/L. Control wells (only added with 200 μl of cell suspension) and drug-free blank control wells (containing the solvent of 0.01% DMSO) were set, each group included 8 wells, and the plate was placed into the 37° C. incubator with saturated humidity and 5% of CO2 for culturing;
(§5) (3) The 96-well plate was taken out at 48 h and 72 h after dosing, the original culture medium was carefully removed by suction, 100 μl of serum-free DMEM culture medium and 10 μl of MTT (5 mg/mL) solution were added in each well. The plate was continuously cultured for another 4 h and then the culture was terminated;
(§6) (4) The supernatant in the wells was carefully removed by suction, each well was added with 150 μl of DMSO and shaked at room temperature for 10-15 min to fully dissolve crystals.
(§7) (5) Colorimetric analysis: the wavelength was selected as 570 nm, the light absorbance (A value) of each well was determined on the microplate reader and the results were recorded; the experiment was repeated for three times;
(§8) (6) the experimental results were calculated according to the following formula: relative survival rate=(A value of each experimental group/A value of cell control group)×100%
(§9) Calculation of median-effect concentration (IC50, namely the drug concentration at which the inhibition rate is 50%, also known as half inhibitory concentration):
(§10) IC50 of the detected component was calculated by using a regression equation.

Experiment [2] relates to human pancreatic cancer cells BxPC3. The experiment is described as follows: MTT growth inhibition, BxPc3 cells. The experiment is classed as cell-based. As to conditions: Homo sapiens, BXPC-3, 72 h after treatment, read-out: Drug concentration (IC50) at which 50% cancer cells survived.
Excerpt: as §1, §2, §3, §4, §5, §6, §7, §8, §9, §10

The test system of another experiment is mouse melanoma cells B16. Put plainly: MTT growth inhibition, B16 cells. It is filed as cell-based. Particulars: Mus musculus, 72 h after treatment, read-out: Drug concentration (IC50) at which 50% cancer cells survived.
Excerpt: as §1, §2, §3, §4, §5, §6, §7, §8, §9, §10

Experiment [3] has as its system human liver cancer cells SMMC7721. The experiment is described as follows: MTT growth inhibition, SMMC7721 cells. As to conditions: SMMC-7721, S-7721 (SMMC7721), 72 h after treatment, read-out: Drug concentration (IC50) at which 50% cancer cells survived. It is filed as cell-based.
Experiment [4] relates to Lewis lung cancer (highly metastatic mouse lung cancer) cells. The experiment is described as follows: Mouse Lewis lung cancer metastasis model. It is filed as in vivo, C57/BL6J black mice. Particulars: Lewis lung carcinoma, ip, LLC, vs DMSO solvent control, read-out: tumor lung metastasis inhibition rate % of mouse Lewis lung cancer; for inhibition in vivo at 60 mg/kg: 60 mg/kg intraperitoneal once a day; for inhibition in vivo at 90 mg/kg: 90 mg/kg intraperitoneal once a day. The procedure: RPMI1640 and DMEM culture solutions: Hyclone Company; inactivated fetal bovine serum: Hyclone Company, preserved at −20° C.; trypsin: Amersco Company; and 0.4% trypan blue: Sigma Company;
(4) sacrifice of animals: the mice were anesthetized and photoed after treatment experiments; the nude mice were sacrificed by breaking neck, the tumor tissues were stripped under sterile conditions and the weight of the tumors was weighed; and the effects of the drugs on pathology and toxicity of the various organs and tissues were detected.

For experiment [5], the system named is Caski human cervical cancer cells. Put plainly: MTT growth inhibition, Caski cells. It is filed as cell-based. Particulars: Ca-Ski, 72 h after treatment, read-out: Drug concentration (IC50) at which 50% cancer cells survived.
A further experiment concerns Caspase3. The experiment is described as follows: Western Blotting, increase of Caspase3 level. The experiment is classed as cell-based. As to conditions: liver cancer cells, Lewis lung cancer cells and other cancer cell lines and tumor tissue protein lysates, 48 h treatment, read-out: Effective concentration to increase Caspase-3 by 50%. The text has this: (§11) Antibodies: primary antibodies of VEGFR, EGFR, c-Met, K-Ras, H-Ras, Akt, NF-κB, Cyclin D1, ER-alpha, Dvl-1, Dvl-2, Dvl-3, MMP-9, MMP2, β-catenin, Bcl-2, Bax, p53, p21, E-cadherin and Caspase3 protein, purchased from American Cell Signaling Technology Company and Santa Cruz Technology Company; and H3 acetylation, H4 acetylation and HDAC (HDAC3, HDAC4 and the like) Antibody Sample Kits, purchased from Cell Signaling Technology Company of the U.S.
(§12) (3) polyacrylamide gel electrophoresis (SDS-PAGE): an equal amount of protein lysate sample was used to separate protein, film transfer, and blocking, treated with appropriate primary antibodies and secondary antibodies in sequence, and the film was washed, then the color was developed with ECL kit, and a blot protein band was detected by exposure of an X-ray film; and a Gel-Pro Analyzer was used for quantitative analysis of gray degree, optical density value of the control group and the drug treatment group in various concentration were respectively compared with that of internal reference, the obtained ratios were respectively compared with the control group, and the protein expression level was semi-quantified.
(Immunoblotting shows a protein as a band on a membrane.)

The next experiment has as its system NF-κB. Put plainly: Western Blotting, NF-κB level. It is filed as cell-based. Particulars: human liver cancer cells, Lewis lung cancer cells and other cancer cell lines and tumor tissues, read-out: Effective concentration (IC50) for inhibition of NF-κB.
Excerpt: as §11, §12

The test system of a further experiment is Nuclear β-catenin. Put plainly: Western Blotting, nuclear β-catenin level. Particulars: human liver cancer cells, Lewis lung cancer cells and other cancer cell lines and tumor tissues, read-out: Effective concentration (IC50) for inhibition of Nuclear β-catenin. It is filed as cell-based.
Excerpt: as §11, §12

In the case of `CCNC(=O)CC[C@H](N)C(=O)OC` [Compound IIa, theanine methyl ester], the IC50 in experiment [1] came to 500 ± 40 µM; in experiment [2], 600 µM; in the experiment on mouse melanoma cells B16, 450 µM; in experiment [3] it was 230 µM; in experiment [5], 320 µM. The inhibition in vivo at 60 mg/kg in experiment [4] is 36.8%. The inhibition in vivo at 90 mg/kg in [4] worked out at 38.5%.

In the case of `CCNC(=O)CCC(NC(=O)c1cc2ccccc2oc1=O)C(=O)OCC` (stereo not shown) [Compound Ib, ethyl 5-ethylamino-5-oxo-2-(2-oxo-2H-benzopyran-3-carboxamido)pentanoate], the EC50 in the experiment with Caspase3 is less than 120 µM. The IC50 in [1] was 113 µM; in [2], 105 µM; in the experiment with NF-κB it was less than 120 µM; with mouse melanoma cells B16, 110 µM; with Nuclear β-catenin, less than 120 µM; in experiment [3], 17 µM. Besides, in experiment [5], the IC50 came to 116 µM. Also, in [4], the inhibition in vivo at 60 mg/kg came to 58.2%. Further, in [4], the inhibition in vivo at 90 mg/kg was 69.6%.

`CCNC(=O)CCC(NC(=O)c1cc2cc(F)ccc2oc1=O)C(=O)OCC` (stereo in doubt) [Compound Ie, (R)-2-(6-F-2-oxo-2H-benzopyran-3-carboxamido)-5-ethylamino-5-oxo-pentanoic acid ethyl ester]: the EC50 with Caspase3 was less than 100 µM. The IC50 is 100 µM in experiment [1]; 260 µM in experiment [2]; less than 60 µM in the experiment on NF-κB; 230 µM in the experiment on mouse melanoma cells B16; less than 65 µM in the experiment on Nuclear β-catenin; 61 µM in [3]. In experiment [5], the IC50 came out at 230 µM. For the same compound, the inhibition in vivo at 60 mg/kg in [4] stood at 61.6%. In addition, in experiment [4], the inhibition in vivo at 90 mg/kg was 70.8%.

Turning to `CCNC(=O)CC[C@@H](NC(=O)c1cc2cc(Br)cc(Br)c2oc1=O)C(=O)OCC` [Compound Ih, (R)-2-(6,8-dibromo-2-oxo-2H-benzopyran-3-carboxamido)-5-ethylamino-5-oxo-pentanoic ethyl ester], the EC50 with Caspase3 is less than 70 µM. For the same compound, the IC50 in experiment [1] is 109 µM; in experiment [2], 128 µM; in the experiment on NF-κB, less than 100 µM; in the experiment with mouse melanoma cells B16, 146 µM; with Nuclear β-catenin it was less than 100 µM; in experiment [3], 86 µM. Besides, the IC50 in [5] was 53 µM. In addition, in experiment [4], the inhibition in vivo at 60 mg/kg came out at 77.9%. Besides, the inhibition in vivo at 90 mg/kg in experiment [4] amounted to 80.7%.

For `CCNC(=O)CC[C@@H](NC(=O)c1cc2cc(Cl)cc(Cl)c2oc1=O)C(=O)OCC` [Compound Ig, (R)-2-(6,8-dichloro-2-oxo-2H-benzopyran-3-carboxamido)-5-ethylamino-5-oxo-pentanoic ethyl ester], the EC50 with Caspase3 was less than 70 µM. The IC50 in experiment [1] is 93 µM; in experiment [2], 119 µM; in the experiment on NF-κB it was less than 100 µM; in the experiment with mouse melanoma cells B16 it was 125 µM; with Nuclear β-catenin it was less than 100 µM; in experiment [3], 78 µM. Moreover, the IC50 in experiment [5] was 36 µM. Also, the inhibition in vivo at 60 mg/kg in experiment [4] is 75.5%. In addition, the inhibition in vivo at 90 mg/kg in [4] stood at 79.9%.

Take `CCNC(=O)CCC(NC(=O)c1cc2cc([N+](=O)[O-])ccc2oc1=O)C(=O)OCC` (stereo in doubt) [Compound If, (R)-2-(6-nitro-2-oxo-2H-benzopyran-3-carboxamido)-5-ethylamino-5-oxo-pentanoic acid ethyl ester]: in the experiment on Caspase3, the EC50 is less than 80 µM. Also, the IC50 in experiment [1] was 100 µM; in experiment [2], 180 µM; in the experiment on NF-κB, less than 60 µM; in the experiment with mouse melanoma cells B16 it was 280 µM; in the experiment with Nuclear β-catenin it was less than 90 µM; in experiment [3] it was 61 µM. Further, the IC50 in experiment [5] is 120 µM. In addition, the inhibition in vivo at 60 mg/kg in experiment [4] turned out to be 67.5%. Moreover, the inhibition in vivo at 90 mg/kg in [4] worked out at 75.8%.

On to `CCNC(=O)CCC(NC(=O)c1cc2ccccc2oc1=O)C(=O)OC` (stereo not shown) [Compound Ia, methyl 5-ethylamino-5-oxo-2-(2-oxo-2H-benzopyran-3-carboxamido)pentanoate], for which, in the experiment on Caspase3, the EC50 was less than 125 µM. In addition, the IC50 in experiment [1] is 230 µM; in experiment [2], 350 µM; in the experiment on NF-κB, less than 125 µM; in the experiment with mouse melanoma cells B16, 145 µM; in the experiment with Nuclear β-catenin, less than 120 µM; in experiment [3], 75 ± 30 µM. Further, the IC50 in experiment [5] was 210 µM. The inhibition in vivo at 60 mg/kg in experiment [4] stood at 55.4%. Further, the inhibition in vivo at 90 mg/kg in experiment [4] was found to be 60.9%.

Take `CCNC(=O)CC[C@@H](NC(=O)c1cc2cc(Cl)ccc2oc1=O)C(=O)OCC` [Compound Ic, (R)-2-(6-CI-2-oxo-2H-benzopyran-3-carboxamido)-5-ethylamino-5-oxo-pentanoic acid ethyl ester]: the EC50 in the experiment with Caspase3 is less than 100 µM. Besides, the IC50 was 106 ± 50 µM in experiment [1]; 89 µM in experiment [2]; less than 100 µM with NF-κB; 125 µM in the experiment on mouse melanoma cells B16; less than 100 µM with Nuclear β-catenin; 75 µM in experiment [3]. In [5], the IC50 came out at 86 µM. For the same compound, in experiment [4], the inhibition in vivo at 60 mg/kg was 74.2%. Moreover, the inhibition in vivo at 90 mg/kg in experiment [4] turned out to be 79.2%.

As for `CCNC(=O)CC[C@H](N)C(=O)OCC` [Compound IIb, theanine ethyl ester], the IC50 in [1] came out at 400 ± 10 µM; in experiment [2] it was 300 µM; in the experiment with mouse melanoma cells B16, 500 µM; in experiment [3] it was 400 µM; in [5] it was 300 µM. Further, in [4], the inhibition in vivo at 60 mg/kg is 52.3%. In addition, in [4], the inhibition in vivo at 90 mg/kg is 54.7%.

For `CCNC(=O)CC[C@@H](NC(=O)c1cc2cc(Br)ccc2oc1=O)C(=O)OCC` [Compound Id, (R)-2-(6-Br-2-oxo-2H-benzopyran-3-carboxamido)-5-ethylamino-5-oxo-pentanoic acid ethyl ester], in the experiment with Caspase3, the EC50 is less than 100 µM. The IC50 was 101 µM in [1]; 116 µM in experiment [2]; less than 80 µM in the experiment with NF-κB; 120 µM in the experiment with mouse melanoma cells B16; less than 100 µM in the experiment with Nuclear β-catenin; 65 µM in experiment [3]. Further, the IC50 in [5] turned out to be 101 µM. The inhibition in vivo at 60 mg/kg in [4] was 69.2%. The inhibition in vivo at 90 mg/kg in experiment [4] amounted to 82.5%.
